Laboratory results published in patent EP4711369A1, “1H-[1,2,3]TRIAZOLO[4,5-H]QUINAZOLINE COMPOUNDS AS PROTEIN KINASE INHIBITORS” (Chengdu Cynogen Bio-Pharmaceutical Technology Co., Ltd., priority 2023, dated 2024).

How the values were obtained:
CDK2/cyclin E = CDK2/cyclin E (Homo sapiens, UniProt P24941); assay: Assay of kinase activity (ADP-Glo); assay type: biochemical; settings: kinase inhibitory activity, read-out: CDK2/E1 IC50
In short: (§1)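 Kinase preincubated 10 min with compound in 50 mM Hepes, 10 mM MgCl2, 0.01% Brij35, 2 mM DTT, then substrate/ATP added for 60 min at 25 °C. ADP formed measured by ADP-Glo luminescence; IC50 by nonlinear concentration-response fitting.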

CDK4/cyclin D1 = CDK4/cyclin D1 (Homo sapiens, UniProt P11802); assay: Assay of kinase activity (ADP-Glo); assay type: biochemical; settings: kinase inhibitory activity
In short: as §1

CDK6/cyclin D3 = CDK6/cyclin D3 (Homo sapiens, UniProt Q00534); assay: Assay of kinase activity (ADP-Glo); assay type: biochemical; settings: kinase inhibitory activity
In short: (§2)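 Human CDK6/cyclin D3 and CDK9/cyclin T1 preincubated 10 min at 25 °C with compound in 50 mM Hepes, 10 mM MgCl2, 0.01% Brij35, 2 mM DTT, then reacted 60 min at 25 °C with substrate and ATP. ADP formed measured by ADP-Glo luminescence; IC50 from nonlinear concentration-response fitting.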

CDK9/cyclin T1 = CDK9/cyclin T1 (Homo sapiens, UniProt P50750); assay: Assay of kinase activity (ADP-Glo); assay type: biochemical; settings: kinase inhibitory activity
In short: as §2

[1] = test system: human acute myeloid leukemia MV-4-11 cells; assay: Assay of cell proliferation (CellTiter-Glo); assay type: cell-based; settings: MV4-11, 144 h, 6 days, read-out: MV-4-11 IC50 of cell proliferation inhibitory activity
In short: (§3)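 Cells seeded per line at growth-adapted densities, treated 6 days at 37 °C/5% CO2 with nine 3-fold dilutions (10 µM to 0.1 nM final, 0.5% DMSO). Viability by CellTiter-Glo luminescence; IC50 from four-parameter fit.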

[2] = test system: human breast cancer HCC1806 cells; assay: Assay of cell proliferation (CellTiter-Glo); assay type: cell-based; settings: Homo sapiens, 144 h, 6 days, read-out: HCC1806 IC50 of cell proliferation inhibitory activity
In short: as §3

[3] = test system: human gastric cancer MKN1 cells; assay: Assay of cell proliferation (CellTiter-Glo); assay type: cell-based; settings: Homo sapiens, MKN-1, 144 h; MNK1, 6 days; read-out: MKN1 IC50 of cell proliferation inhibitory activity
In short: as §3

[4] = test system: Human ovarian cancer OVCAR3 cells; assay: Assay of cell proliferation (CellTiter-Glo); assay type: cell-based; settings: Homo sapiens, OVCAR-3, 144 h, 6 days, read-out: OVCAR3 IC50 of cell proliferation inhibitory activity
In short: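 OVCAR3 cells, 2000/well in RPMI 1640 with 20% FBS, treated with nine 3-fold dilutions from 10 µM to 0.1 nM (0.5% DMSO) for 6 days at 37 °C. Viability by CellTiter-Glo luminescence; IC50 by four-parameter fit.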

Sequence of CDK9/cyclin T1 (P50750 whole entry, species assumed): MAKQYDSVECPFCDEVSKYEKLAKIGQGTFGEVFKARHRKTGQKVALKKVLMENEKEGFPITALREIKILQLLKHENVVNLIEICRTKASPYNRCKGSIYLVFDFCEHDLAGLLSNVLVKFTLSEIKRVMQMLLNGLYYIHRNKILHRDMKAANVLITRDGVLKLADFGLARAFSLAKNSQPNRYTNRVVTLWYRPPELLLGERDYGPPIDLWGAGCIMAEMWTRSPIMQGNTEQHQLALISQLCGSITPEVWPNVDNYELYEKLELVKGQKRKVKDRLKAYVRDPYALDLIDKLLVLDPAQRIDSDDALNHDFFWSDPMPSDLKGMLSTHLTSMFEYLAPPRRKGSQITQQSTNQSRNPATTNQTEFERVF
Sequence of CDK9/cyclin T1 (O60563 whole entry partner, species assumed): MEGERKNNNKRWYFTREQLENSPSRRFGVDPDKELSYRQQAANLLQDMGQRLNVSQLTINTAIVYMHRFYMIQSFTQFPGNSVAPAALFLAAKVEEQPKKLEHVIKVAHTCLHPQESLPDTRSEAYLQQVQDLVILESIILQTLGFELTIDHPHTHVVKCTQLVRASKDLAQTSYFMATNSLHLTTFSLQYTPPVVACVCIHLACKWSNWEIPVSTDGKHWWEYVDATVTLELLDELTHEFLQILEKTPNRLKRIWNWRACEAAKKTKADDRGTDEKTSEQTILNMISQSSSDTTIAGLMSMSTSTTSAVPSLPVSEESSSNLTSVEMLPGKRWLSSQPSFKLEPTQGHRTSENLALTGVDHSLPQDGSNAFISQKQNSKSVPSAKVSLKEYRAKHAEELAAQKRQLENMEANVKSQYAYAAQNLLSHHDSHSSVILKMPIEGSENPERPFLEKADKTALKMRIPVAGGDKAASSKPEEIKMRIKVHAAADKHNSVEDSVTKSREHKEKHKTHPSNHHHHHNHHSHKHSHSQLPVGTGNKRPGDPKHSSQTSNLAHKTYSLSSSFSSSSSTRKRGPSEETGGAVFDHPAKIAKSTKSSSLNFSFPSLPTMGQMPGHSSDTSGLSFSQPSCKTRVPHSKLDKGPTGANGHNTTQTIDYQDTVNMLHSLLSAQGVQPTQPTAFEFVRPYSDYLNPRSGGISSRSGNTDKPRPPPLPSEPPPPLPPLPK
Sequence of CDK6/cyclin D3 (Q00534 whole entry, species assumed): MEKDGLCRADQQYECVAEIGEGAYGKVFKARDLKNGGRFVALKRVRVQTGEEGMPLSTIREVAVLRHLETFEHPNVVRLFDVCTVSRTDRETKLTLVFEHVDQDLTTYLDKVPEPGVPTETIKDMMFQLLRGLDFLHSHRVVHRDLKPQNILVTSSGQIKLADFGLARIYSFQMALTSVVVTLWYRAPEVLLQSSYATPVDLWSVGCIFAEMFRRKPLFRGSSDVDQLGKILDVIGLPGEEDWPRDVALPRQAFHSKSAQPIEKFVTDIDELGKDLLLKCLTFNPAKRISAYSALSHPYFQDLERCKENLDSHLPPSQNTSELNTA
Sequence of CDK6/cyclin D3 (P30281 whole entry partner, species assumed): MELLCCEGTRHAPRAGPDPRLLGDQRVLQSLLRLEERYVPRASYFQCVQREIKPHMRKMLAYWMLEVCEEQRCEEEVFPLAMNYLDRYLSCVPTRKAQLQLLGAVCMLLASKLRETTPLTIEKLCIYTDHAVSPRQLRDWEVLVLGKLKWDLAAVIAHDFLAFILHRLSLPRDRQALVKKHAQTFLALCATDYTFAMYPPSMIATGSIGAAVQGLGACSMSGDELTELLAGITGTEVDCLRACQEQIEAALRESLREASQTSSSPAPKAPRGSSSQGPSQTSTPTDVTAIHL
Sequence of CDK4/cyclin D1 (P11802 whole entry, species assumed): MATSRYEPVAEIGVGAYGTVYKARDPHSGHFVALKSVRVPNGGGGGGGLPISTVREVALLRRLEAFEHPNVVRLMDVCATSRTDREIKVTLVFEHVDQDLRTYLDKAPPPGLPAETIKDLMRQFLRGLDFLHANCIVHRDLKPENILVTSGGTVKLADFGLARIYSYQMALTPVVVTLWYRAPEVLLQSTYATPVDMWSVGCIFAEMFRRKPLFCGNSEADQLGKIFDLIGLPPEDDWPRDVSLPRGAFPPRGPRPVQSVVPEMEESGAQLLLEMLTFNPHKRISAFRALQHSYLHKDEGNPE
Sequence of CDK4/cyclin D1 (P24385 whole entry partner, species assumed): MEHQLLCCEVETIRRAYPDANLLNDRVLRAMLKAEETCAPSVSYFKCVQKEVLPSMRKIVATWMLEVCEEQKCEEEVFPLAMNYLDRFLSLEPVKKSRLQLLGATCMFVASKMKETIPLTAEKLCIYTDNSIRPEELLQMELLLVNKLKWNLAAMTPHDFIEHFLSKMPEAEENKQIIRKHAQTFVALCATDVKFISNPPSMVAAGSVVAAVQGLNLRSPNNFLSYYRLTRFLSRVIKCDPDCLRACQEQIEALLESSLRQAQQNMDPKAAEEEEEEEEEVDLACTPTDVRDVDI

| SMILES | IC50 (CDK2/cyclin E) [nM] | IC50 (CDK4/cyclin D1) [nM] | IC50 (CDK6/cyclin D3) [nM] | IC50 (CDK9/cyclin T1) [nM] | IC50 [1] [nM] | IC50 [2] [nM] | IC50 [3] [nM] | IC50 [4] [nM] |
| --- | --- | --- | --- | --- | --- | --- | --- | --- |
| C[C@@H](n1nnc2ccc3cnc(Nc4ccc(C(=O)N5CCS(=O)(=O)CC5)cc4)nc3c21)C(C)(C)O [Example I-59, (R)-(1,1-Dioxothiomorpholino)(4-((1-(3-hydroxy-3-methylbutan-2-yl)-1H-[1,2,3]triazolo[4,5-H]quinazolin-8-yl)amino)phenyl)methanone] | 1 | 2 | 15 | 46 | 18 | 543 | 127 | 389 |
| C[C@@]1(O)CCC[C@H]1n1nnc2ccc3cnc(Nc4ccc(C(=O)N5CCOCC5)cc4)nc3c21 [Example I-67, (4-((1-((1R,2R)-2-Hydroxy-2-methylcyclopentyl)-1H-[1,2,3]triazolo[4,5-H]quinazolin-8-yl)amino)phenyl)(morpholino)methanone] | 1 | 2 | 21 | 46 | 5 | 137 | 13 | 45 |
| CC(C)n1nnc2ccc3cnc(Nc4ccc(C(=O)N5CC6CC(C5)N6)cc4)nc3c21 [Example I-24, (3,6-Diazabicyclo[3.1.1]heptan-3-yl)(4-((1-isopropyl-1H-[1,2,3]triazolo[4,5-H]quinazolin-8-yl)amino)phenyl)metha none] | 0.1 | 1 | 26 | 8 | 3 | 44 | 6 | 18 |
| CC(C)n1nnc2ccc3cnc(Nc4ccc(C(=O)N5CC[C@@H](F)C5)cc4)nc3c21 [Example I-2, (R)-(3-Fluoropyrrolidin-1-yl)(4-((1-isopropyl-1H-[1,2,3]triazolo[4,5-H]quinazolin-8-yl)amino)phenyl)methanone] | 0.3 | 2 | 12 | 8 | 15 | 175 | 46 | 94 |
| CC(C)n1nnc2ccc3cnc(Nc4ccc(C(=O)N5CCCN(C)CC5)cc4)nc3c21 [Example I-34, (4-((1-Isopropyl-1H-[1,2,3]triazolo[4,5-H]quinazolin-8-yl)amino)phenyl)(4-methyl-1,4-diazepan-1-yl)methanone] | 0.09 | 0.7 | 19 | 2 | 2 | 6 | 5 | 7 |
| C[C@@]1(O)CCC[C@H]1n1nnc2ccc3cnc(Nc4ccc(C(=O)N5CC[C@H](N)C5)cc4)nc3c21 [Example I-62, ((S)-3-Aminopyrrolidin-1-yl)(4-((1-((1R,2R)-2-hydroxy-2-methylcyclopentyl)-1H-[1,2,3]triazolo[4,5-H]quinazolin-8-yl)amino)phenyl)methanone] | 0.08 | 0.5 | 4 | 3 | 5 | 54 | 8 | 28 |

Second part, the molecule after the results:

| IC50 (CDK2/cyclin E) [nM] | IC50 (CDK4/cyclin D1) [nM] | IC50 (CDK6/cyclin D3) [nM] | IC50 (CDK9/cyclin T1) [nM] | IC50 [1] [nM] | IC50 [2] [nM] | IC50 [3] [nM] | IC50 [4] [nM] | SMILES |
| --- | --- | --- | --- | --- | --- | --- | --- | --- |
| 0.1 | 0.6 | 4 | 3 | 2 | 12 | 3 | 7 | CN(C)[C@H]1CCN(C(=O)c2ccc(Nc3ncc4ccc5nnn([C@@H]6CCC[C@@]6(C)O)c5c4n3)cc2)C1 [Example I-64, ((S)-3-(Dimethylamino)pyrrolidin-1-yl)(4-((1-((1R,2R)-2-hydroxy-2-methylcyclopentyl)-1H-[1,2,3]triazolo[4,5-H]quinazolin-8-yl)amino)phenyl)methanone] |
| 2 | 4 | 23 | 4 | 5 | 115 | 56 | 27 | CC(C)n1nnc2ccc3cnc(Nc4ccc(C(=O)N5CCNC(C)(C)C5)cc4)nc3c21 [Example I-22, (3,3-Dimethylpiperazin-1-yl)(4-((1-isopropyl-1H-[1,2,3]triazolo[4,5-H]quinazolin-8-yl)amino)phenyl)metha none] |
| 0.9 | 1 | 4 | 23 | 11 | 465 | 17 | 32 | C[C@@H](n1nnc2ccc3cnc(Nc4ccc(C(=O)N5CCN(C)CC5)cc4)nc3c21)C(C)(C)O [Example I-57, (R)-(4-((1-(3-Hydroxy-3-methylbutan-2-yl)-1H-[1,2,3]triazolo[4,5-H]quinazolin-8-yl)amino)phenyl)(4-methylpiperazin-1-yl)methanone] |
| 0.8 | 1 | 3 | 19 | 12 | 98 | 41 | 88 | C[C@@H](n1nnc2ccc3cnc(Nc4ccc(C(=O)N5CCCNCC5)cc4)nc3c21)C(C)(C)O [Example I-60, (R)-(1,4-Diazepan-1-yl)(4-((1-(3-hydroxy-3-methylbutan-2-yl)-1H-[1,2,3]triazolo[4,5-H]quinazolin-8-yl)amino)phenyl)methanone] |
| 1 | 2 | 16 | 8 | 7 | 268 | 49 | 192 | C[C@@H](n1nnc2ccc3cnc(Nc4ccc(C(=O)N5CC[C@H](N)C5)cc4)nc3c21)C(C)(C)O [Example I-54, ((S)-3-Aminopyrrolidin-1-yl)(4-((1-((R)-3-hydroxy-3-methylbutan-2-yl)-1H-[1,2,3]triazolo[4,5-h]quinazolin-8-yl)amino)phenyl)methanone] |
| 0.7 | 2 | 18 | 6 | 5 | 80 | 15 | 31 | CC(C)N[C@H]1CCN(C(=O)c2ccc(Nc3ncc4ccc5nnn([C@H](C)C(C)(C)O)c5c4n3)cc2)C1 [Example I-55, (4-((1-((R)-3-hydroxy-3-methylbutan-2-yl)-1H-[1,2,3]triazolo[4,5-H]quinazolin-8-yl)amino)phenyl)((S)-3-(isopropylamino)pyrrolidin-1-yl)methanone] |
| 0.4 | 3 | 35 | 24 | 4 | 112 | 57 | 73 | CC(C)n1nnc2ccc3cnc(Nc4ccc(C(=O)N5C[C@@H](C)N[C@@H](C)C5)cc4)nc3c21 [Example I-23, ((3R,5S)-3,5-dimethylpiperazin-1-yl)(4-((1-isopropyl-1H-[1,2,3]triazolo[4,5-H]quinazolin-8-yl)amino)phenyl)metha none] |
| 0.2 | 1 | 15 | 2 | 3 | 53 | 11 | 26 | CC(C)N[C@@H]1CCN(C(=O)c2ccc(Nc3ncc4ccc5nnn(C(C)C)c5c4n3)cc2)C1 [Example I-9, (R)-(4-((1-Isopropyl-1H-[1,2,3]triazolo[4,5-H]quinazolin-8-yl)amino)phenyl)(3-(isopropylamino)pyrrolidin-1-yl)methanone] |
